# US20070270339A1, “Use of GPCR54 Ligands for the Treatment of Infertility” (SERONO, INC., priority 2004, published 2007)
# No end group written: not given here.
# Experiments:
# GPCR54 = GPCR54 (Homo sapiens, UniProt Q969F8); details: peptides from placental tissue extract, Kotani et al. 2001; cited from earlier work
# [1] = tested on: gonadotropic axis (plasma LH and FSH); experiment: i.v. injection of Kiss-1: plasma LH and FSH levels, with or without Antide pretreatment; format: in vivo, rat
# Description: (§1) All experiments were conducted in female Sprague-Dawley rats (180-200 g) obtained from Charles River (MA), fed with standard laboratory chow and water ad libitum, kept on 12 h light-dark in temperature and humidity controlled room.
# (§2) Ovariectomy and implantation of estrogen-containing capsule. To remove daily variance of plasma estrogen levels due to variable estrous cycle, both ovaries were removed under anesthesia through incision at the animal's back. Right before closure of the incision, two estrogen-containing capsules (0.5 mg/coupsule, Innovative Research of America, FL) were inserted subcutaneously at the middle of animal's back to maintain consistent basal physiological levels of plasma estrogen. Rats were allowed to recover for 7 days.
# Jugular cannula insertion and tethering to automated blood sampler. The right jugular vein of anesthetized rats was exposed through a neck incision. A retaining suture was tied to the exposed vein at rostral end to manipulate the vein. The caudal end of the vein was clamped with a small forceps to prevent bleeding while a cannula, a polyethene tubing (OD 1.0 mm), was inserted in the middle of the vein through a 0.5 mm incision made with iris scissors. After the insertion of the cannula, a suture was tied around the vein at the caudal end to secure the cannula within the vein. The incision at the neck was closed with wound clips and the outer end of the cannula was attached to a tubing of an automated blood sampler (Bioanalytical Systems Inc., IN) filled with heparin-containing (20 IU/ml) sterile saline. The automated blood sampler consisting of a turning cage equipped with a food box and a water bottle, a balanced arm, a pumping system, a fraction collector and a controller was used to collect blood samples. A rat inserted of a jugular cannula was tethered to the balanced arm via a loosely-fitting plastic collar. The cage rotates to the counter direction of animal's movement to prevent twisting of the jugular cannula connected to a tubing of the sampler, as well as to allow the rat to eat, drink and move freely during the course of the blood collection. Rats were allowed to recover for 24 hours.
# All experiments were carried out around between 13 h and 14 h. […]
# (§3) Changes of plasma LH and FSH concentration (ng/ml) after injection were obtained as the area under the curve (AUC). It was first determined for each animal by calculating the sum of post-treatment hormonal levels at 15, 30 and 45 min each of which was subtracted by basal levels (an average of pre-treatment levels at −15 and 0 min), then averaged as a group. Statistical differences among treatment groups were determined by one-way ANOVA followed by LSD as a post-hoc test. […]
# [2] = tested on: gonadotropic axis (plasma LH and FSH); experiment: i.c.v. injection of Kiss-1: plasma LH and FSH levels; format: in vivo, rat
# Description: as §1
# Implantation of intracerebroventricular cannula for i.c.v. experiment. The head of anesthetized rats was placed in the stereotaxic instrument and oriented such that the bregma and lambda was horizontal. An incision was made along the sagittal midline in an anterior-to-posterior direction. A hole, 1.5 mm in diameter, was drilled through the skull 0.9 mm posterior and 0.0 mm lateral to bregma. A 25 mm×22 gauge stainless steel cannula was lowered about 7 mm until cerebrospinal fluid could be aspirated from the 3rd ventricle via a 1 cc syringe connected to the cannula by a 5 cm section of Silastic tubing. After sealing the outer opening of the cannula, it was anchored to the skull with three stainless steel screws and dental acrylic cement then the incision was closed. Rats were allowed to recover for 14 days.
# as §2
# Jugular cannula insertion and tethering to automated blood sampler. The right jugular vein of anesthetized rats was exposed through a neck incision. A retaining suture was tied to the exposed vein at rostral end to manipulate the vein. The caudal end of the vein was clamped with a small forceps to prevent bleeding while a cannula, a polyethene tubing (OD 1.0 mm), was inserted in the middle of the vein through a 0.5 mm incision made with iris scissors. After the insertion of the cannula, a suture was tied around the vein at the caudal end to secure the cannula within the vein. […]
# as §3
# LH and FSH release = experiment: in vivo comparison of GnRH and Kiss1 on release of LH and FSH over 45 minutes (FIG. 1); parameters: species or system rat; details: single administration, compared with GnRH
# Description: All experiments were carried out around between 13 h and 14 h. […] Blood samples (100 ul) were removed before (−15 and 0 min) and after (15, 30, 45 min) injection with the automated blood sampler. Each blood sample was replaced with an equivalent volume of the heparin-containing (20 IU/ml) sterile saline. Plasma was extracted and stored at −20° C. until determination of LH and FSH by enzyme-linked immunoassay and radioimmunoassay, respectively.
# Changes of plasma LH and FSH concentration (ng/ml) after injection were obtained as the area under the curve (AUC). It was first determined for each animal by calculating the sum of post-treatment hormonal levels at 15, 30 and 45 min each of which was subtracted by basal levels (an average of pre-treatment levels at −15 and 0 min), then averaged as a group. Statistical differences among treatment groups were determined by one-way ANOVA followed by LSD as a post-hoc test. An initial data set is shown in FIGS. 1A-P. Further data are described in Examples 2 and 3 below.
# Sequence of GPCR54 (Q969F8 whole entry): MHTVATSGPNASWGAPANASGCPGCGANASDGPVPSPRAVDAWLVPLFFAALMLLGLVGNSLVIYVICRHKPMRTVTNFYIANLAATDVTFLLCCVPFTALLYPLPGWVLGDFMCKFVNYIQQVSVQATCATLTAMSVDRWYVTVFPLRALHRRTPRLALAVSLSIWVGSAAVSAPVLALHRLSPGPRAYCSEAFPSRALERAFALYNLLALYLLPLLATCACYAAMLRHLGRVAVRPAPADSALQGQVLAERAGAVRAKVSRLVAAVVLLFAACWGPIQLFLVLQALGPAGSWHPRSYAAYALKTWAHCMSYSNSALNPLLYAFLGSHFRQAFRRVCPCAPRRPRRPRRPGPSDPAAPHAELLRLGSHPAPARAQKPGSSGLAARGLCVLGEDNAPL
substance,measurement,setting,value
SEQ ID NO: 4: 54-amino acid kisspeptin from Kiss-1 with RF-amide at the C-terminus (Kotani et al.) (GTSLSPPPESSGSPQQPGLSAPHSRQIPAPQGAVLVQREKDLPNYNWNSFGLRF-NH2; listed as Homo sapiens),agonist activity at GPCR54,GPCR54,agonists of GPCR54
SEQ ID NO:5: 14-amino acid kisspeptin from Kiss-1 with RF-amide at the C-terminus (Kotani et al.) (DLPNYNWNSFGLRF-NH2; listed as Homo sapiens),agonist activity at GPCR54,GPCR54,agonists of GPCR54
"GnRH: GnRH, a positive control, obtained from Sigma (QHWSYGLRPG; Gonadoliberin-1; UniProt P01148 24-33, looked up) [reference compound]",circulating gonadotropins levels,"[1]; GnRH positive control, estrogen-treated ovariectomized rats",induced elevations of circulating gonadotropins levels
Tyr-Asn-Trp-Asn-Ser-Phe-Gly-Leu-Arg-Phe-NH2 (YNWNSFGLRF-NH2; listed as Homo sapiens) [Kiss-1],plasma FSH levels,"[1]; i.v. injection, estrogen-treated ovariectomized rats",dose-dependent increases
same,plasma LH levels,"[1]; i.v. injection, estrogen-treated ovariectomized rats, with the exception of LH response at the highest dose",dose-dependent increases
same,i.c.v. dose to yield FSH response as fraction of i.v. dose,"[2]; FSH, i.c.v. versus i.v.",1/100
same,i.c.v. dose to yield LH response as fraction of i.v. dose,"[2]; LH, i.c.v. versus i.v.",1/25
same,LH release,"[2]; i.c.v. injection, estrogen-treated ovariectomized rats",dose-dependently stimulated LH release
same,FSH levels,"[2]; i.c.v. injection, higher dose not as effective as the lower dose",significant increase of FSH levels
same,LH and FSH production,LH and FSH release,sufficient to drive LH and FSH production similar to GnRH
Antide [reference compound],prevention of GnRH- and Kiss-1-induced elevations of circulating gonadotropins levels,[1]; Antide pretreatment 15 min before injection of 400 ug/kg of Kiss-1,successfully prevented
SEQ ID NO:6: 13-amino acid kisspeptin from Kiss-1 with RF-amide at the C-terminus (Kotani et al.) (LPNYNWNSFGLRF-NH2; listed as Homo sapiens),agonist activity at GPCR54,GPCR54,agonists of GPCR54
